Series [1] concerns intracellular L. amazonensis amastigotes (strain LV79). The series is described as follows: High content assay on intramacrophagic L. amazonensis amastigotes in primary mouse macrophages. As to conditions: hit compounds of Figure 6. Format: cell-based, Leishmania amazonensis. On the procedure:
(§1) Bone marrow derived macrophages (BMDMs) at day 6 of differentiation were resuspended in complete medium supplemented with CSF-1 (25 ng/ml) and deposited in 384 well plates (culture-treated, flat-optically clear bottom, Cellcarrier plate, PerkinElmer). Five hours later purified Am were added.
(§2) One day after macrophage infection, Leish-Box compounds dissolved in DMSO were added for 3 days at 10 or 1 μM final concentration resulting in a 1% DMSO final concentration. Each compound was tested in quadruplicates. Controls included mock (no liquid added), vehicle control (DMSO), positive control (anti-leishmanial amphotericin B, AmB), and cytotoxicity control (cycloheximide, Cyclo).
The high content assay used to assess the anti-leishmanial activity against intramacrophagic amastigotes of L. amazonensis has been described elsewhere. Briefly, after 3 days of co-incubation with compounds, BMDM nuclei and parasitophorous vacuoles (PVs) were stained with Hoechst 33342 (Invitrogen Molecular Probes, 12 µM) and LysoTracker Green (Life Technologies, DND-26, 1 µM), respectively. Acquisition of images was performed on live cell cultures.
(§3) Images of macrophage cultures were acquired using the automatic Opera QEHS confocal imaging system (Perkin Elmer Technology). For the L. donovani HCA, a 40x water objective and two lasers (488 nm for immuno-stained parasites; 405 nm for Hoechst-stained parasite and macrophage nuclei, and HCS-stained macrophage cytoplasm) were used for acquiring 285 fields for the entire well or 30 fields per well in routine HCA conditions. For L. amazonensis HCA, a 10x air objective and three lasers (561 nm for mCherry-expressing parasites; 488 nm for LysoTracker-containing PVs; 405 nm for Hoechst-stained macrophage nuclei) were used to acquire images from entire wells (15 fields).

Series [2] concerns intracellular L. donovani amastigotes (strain Ld1S). The series is described as follows: High content assay on intramacrophagic L. donovani amastigotes in primary mouse macrophages. The format is cell-based, Leishmania donovani. Particulars: for SI (selectivity index): EC50 (BMDM) versus EC50 (L. donovani Am); for EC50: Leishmania donovani, BMDM, 72 h, read-out: EC50 (L. donovani Am). The protocol:
as §1, §2
(§4) The high content assay used to assess the anti-leishmanial activity against intramacrophagic L. donovani amastigotes corresponds to the L. amazonensis HCS protocol up to the drug incubation step. Then, BMDM cultures were fixed with 4% paraformaldehyde solution in PBS for 1 hour at room temperature, washed with PBS, blocked with 50 mM NH4Cl-PBS for 15 min, and saturated for 30 min with saponin-PBS (0.1 mg/ml) containing 5% normal goat serum. All washing steps were performed with saponin-PBS. Cells were incubated for 45 min with saponin-PBS with 0.25% gelatin and an immune serum obtained from a L. donovani infected hamster (dilution 1/1000), washed twice, and further incubated for 45 min with saponin-PBS containing 0.25% gelatin and 2 µg/ml conjugated AlexaFluor 488 goat anti hamster IgG (Jackson ImmunoReasearch). Finally, after additional washing, Hoechst 33342 (5 µg/ml) and HCS CellMask Blue stain (HCS, Invitrogen Molecular Probes, 2 µg/ml) were added for 30 min at room temperature, washed twice with PBS and stored at 4 °C until acquisition. For hit compounds EC50s were calculated using SigmaPlot software (four parameter logistic equation) following application of a range of concentrations (from 10 to 0.16 µM) performed in duplicates.
as §3
Images were transferred to the Columbus Conductor™ Database (Perkin Elmer Technologies) and analyzed using the integrated Image analysis building blocks. For L. donovani HCA, we developed a new script based on object segmentation subroutines detecting successively the macrophage nucleus, the macrophage cytoplasm, the parasites and their nuclei, with their associated features (number, size and object intensity). All methods used for segmentation are described in the Columbus Manuel. Analysis was simplified by only taking into account the number of macrophages and the number of amastigotes per macrophage, which was the common way to estimate the anti-leishmanial activity in screening campaigns. For the sake of clarity, both toxicity against host cells and activity against the parasites of tested compounds were normalized to DMSO-treated controls and expressed as percent of DMSO controls. The viability index is calculated by establishing a ratio of macrophage numbers between compound- and DMSO-treated cells, while the anti-leishmanial activity is represented by the number of amastigotes per macrophage. Compounds causing a 50% or higher reduction of macrophage density were considered toxic. […] For the L. amazonensis HCA, we applied the method we described previously. […]

Series [3] deals with BMDM (bone marrow derived macrophages). The series is described as follows: Host cell toxicity (macrophage number) in the L. donovani high content assay. The format is cell-based, mouse. As to conditions: for EC50: Mus musculus, BMDM, 72 h, toxicity against macrophages, 3 days, concentrations from 10 to 0.16 µM. The protocol:
Primary mouse macrophages were prepared as described. Briefly, bone marrow cells were recovered from BALB/c mice and were resuspended in complete DMEM medium (PAN Biotech) supplemented with 75 ng/ml of recombinant mouse CSF-1 (ImmunoTools). Cells were distributed in hydrophobic Petri dishes (Greiner 664161, 1,5 × 10^7 in 11 ml) and incubated at 37 °C in a 7.5% CO2 air atmosphere for 6 days (with mCSF-1 supplemented medium added at day 3).
as §1, §2, §4
Images were transferred to the Columbus Conductor™ Database (Perkin Elmer Technologies) and analyzed using the integrated Image analysis building blocks. For L. donovani HCA, we developed a new script based on object segmentation subroutines detecting successively the macrophage nucleus, the macrophage cytoplasm, the parasites and their nuclei, with their associated features (number, size and object intensity). All methods used for segmentation are described in the Columbus Manuel. Analysis was simplified by only taking into account the number of macrophages and the number of amastigotes per macrophage, which was the common way to estimate the anti-leishmanial activity in screening campaigns. For the sake of clarity, both toxicity against host cells and activity against the parasites of tested compounds were normalized to DMSO-treated controls and expressed as percent of DMSO controls. The viability index is calculated by establishing a ratio of macrophage numbers between compound- and DMSO-treated cells, while the anti-leishmanial activity is represented by the number of amastigotes per macrophage. Compounds causing a 50% or higher reduction of macrophage density were considered toxic. […] For the L. amazonensis HCA, we applied the method we described previously. Quantitative values obtained for host cell and parasite numbers were exported to Excel and SigmaPlot for further analysis and graphical representations.

Series [4] has as its system L. donovani promastigotes (Ld1S). The series is described as follows: Resazurin reduction viability assay on cultured L. donovani promastigotes. The format is cell-based. As to conditions: Leishmania donovani, read-out: EC50 against L. donovani promastigotes. The protocol: Figure 4 Leish-Box screening results for cultured L. donovani promastigotes. A resazurin-based viability assay was used to assess anti-leishmanial activity of Leish-Box compounds against Ld1S promastigotes. Two days after compound addition to parasite cultures at logarithmic growth phase, resazurin was added for an additional 24 hours before reading the level of resofurin fluorescence using an Infinite™ M200 plate reader (Tecan™). […] The outer and inner circles represent respectively 80% and 50% threshold activity values.
Anti-leishmanial activity of compounds was evaluated using an adapted resazurin reduction assay[53] with cell-cycling promastigotes from logarithmic growth phase. Compounds were tested in quadruplicates at 20, 4 and 0.8 μM at 26 °C in 384-well plates. DMSO vehicle and AmB (1 μM) were used as controls. Two days later, resazurin was added (10 μL per well at 25 μg/mL) and fluorescence intensity was measured 24 h later using a Tecan Safire 2 reader (excitation 558 ± 4.5 nm; emission 585 ± 10 nm). Following background subtraction (complete parasite culture medium with resazurin in absence of parasites), data were expressed as percentages of growth compared to DMSO-treated controls (POC).
In general terms: The colour change of resazurin is a common sign of viable cells or microbes.

The text below walks through data of publication PMC6345745, “Discovery of novel hit compounds with broad activity against visceral and cutaneous Leishmania species by comparative phenotypic screening” (Scientific Reports, 2019).

Usually EC50 stands for the concentration that produces a half-maximal response. As for `COc1ccc(NS(=O)(=O)c2cc(NC(=O)c3ccc([N+](=O)[O-])s3)ccc2OC)cc1` [TCMDC-143163], the “activity on L. amazonensis intramacrophagic amastigotes” value (“activity” for short) in series [1] is recorded as “active”. The “SI (selectivity index)” value in series [2] is reported as more than 10. Besides, the values for the EC50 in series [2] and in series [3] were 0.79 µM and more than 10 µM, respectively.

Consider `Cc1ccc(NC(=O)c2ccc([N+](=O)[O-])s2)cc1S(=O)(=O)N1CCOCC1` [TCMDC-143577], for which the “activity” value in series [1] is given as “active”. Further, the EC50 in series [2] was determined as 1.25 µM; in series [3], 5.09 µM.

`O=C(Nc1ccc(S(=O)(=O)N2CCCC2)cc1)c1ccc([N+](=O)[O-])s1` [TCMDC-143169]: the “activity” value in series [1] is “active”. Also, in series [2], the “SI (selectivity index)” value is > 1,5 and the EC50 is 6.88 µM. In series [3], the EC50 is more than 10 µM.

Take `O=C(Nc1cccc(S(=O)(=O)Nc2ccc(Br)cc2)c1)c1ccc([N+](=O)[O-])s1` [TCMDC-143563]: the “activity” value in series [1] is listed as “active”. Also, in series [2], the “SI (selectivity index)” value is given as more than 10. Besides, the EC50 in series [2] was determined as 0.59 µM; in series [3] it was 6.25 µM.

With `C[C@@H]1[C@H](O)[C@@H](C)/C=C/C=C/C=C/C=C/C=C/C=C/C=C/[C@H](O[C@@H]2O[C@H](C)[C@@H](O)[C@H](N)[C@@H]2O)C[C@@H]2O[C@](O)(C[C@@H](O)C[C@@H](O)[C@H](O)CC[C@@H](O)C[C@@H](O)CC(=O)O[C@H]1C)C[C@H](O)[C@H]2C(=O)O` [AmB, amphotericin B, reference compound], in series [2] (positive control, 3 days), the “amastigote survival compared to DMSO control” value is recorded as 0.8%. Besides, in series [3] (BMDMs recovered after three days of treatment, normalized to mock), the “toxicity toward the host cell” value is “some toxicity”.

As for `COc1ccc(Oc2ccc(C(C)N(C)c3ncc4c(N)nc(N)nc4n3)cc2)cc1` (stereo not shown) [TCMDC-143295], in series [1], the “activity” value is on record as “active”. In series [2], the “SI (selectivity index)” value is listed as more than 10. Further, the half-maximal effective concentration (EC50) in series [2] is 0.48 µM; in series [3] it was more than 10 µM; in series [4], 0.08 µM.
